Among the data in patent US7968554B2, “Pyrazolo[3,4-d]pyrimidine derivatives” (Hoffman-La Roche Inc., priority 2007, dated 2011) are IC50 values, retold here.

Molecules are shown by their SMILES. pIC50: −log10 of the molar value.

A word on the pIC50: it is the IC50 on a negative log10 scale, so that one unit is a factor of ten.

T1 sequence (P15056 416-766 limits assumed): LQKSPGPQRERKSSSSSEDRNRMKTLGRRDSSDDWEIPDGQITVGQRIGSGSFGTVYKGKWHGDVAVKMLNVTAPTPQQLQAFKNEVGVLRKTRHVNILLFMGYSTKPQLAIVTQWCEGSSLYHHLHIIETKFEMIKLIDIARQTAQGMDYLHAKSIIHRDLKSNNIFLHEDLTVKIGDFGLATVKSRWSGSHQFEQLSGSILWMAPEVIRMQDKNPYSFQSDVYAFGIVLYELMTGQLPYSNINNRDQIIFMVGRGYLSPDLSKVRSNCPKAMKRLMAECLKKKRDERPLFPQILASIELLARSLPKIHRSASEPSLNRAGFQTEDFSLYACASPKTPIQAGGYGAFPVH

The test addresses T1, b-Raf wild-type (Homo sapiens, UniProt P15056).
T1 construct: recombinant human b-Raf residues 416-end with N-terminal GST-tag; purchased Upstate 14-530M; host or cells: baculovirus, Sf21 insect cells
Briefly: b-Raf wild-type HTRF assay with 6H-MEK as substrate (dose response). Type of test: biochemical. The settings on record: kinase enzyme inhibition, 6H-MEK substrate, read-out: bRaf wild-type IC50. As to the method: Kinase Enzyme Inhibition Assay (IC50)
b-Raf Wild-Type HTRF Assay With 6H-MEK as Substrate (Dose Response)
The assay utilizes 6H-MEK as the substrate. Upon b-Raf WT phosphorylation, phosphorylated 6H-MEK is detected with rabbit anti-phospho-MEK1/2, Eu-labeled anti-rabbit, and APC-labeled anti-6H antibodies.
Reagents and Instruments:
• Enzyme: recombinant human b-Raf residues 416-end with N-terminal GST-tag from Upstate; (expressed by baculovirus in Sf21 insect cells), 0.26 mg/mL (3.87 μM assuming a molecular weight of 67.2 kD) Cat. #14-530M, Lot #25502AU, stored at −80° C. • Substrate: WT full-length 6H-MEK, 4.94 mg/mL (154.4 μM assuming a MW of 32 kD) stored at −15° C. • Antibodies: Rabbit (α-P-(Ser 217/221)-MEK-1/2 Ab (from Cell Signaling, Cat. #9121B, Lot 14); Eu-(α-rabbit IgG (from Wallac, Cat. #AD0083, Lot 318663, 710 ug/mL, 4.4 μM); (α-6H-SureLight-APC (from Martek, Cat. #AD0059H, Lot E012AB01, 3.03 μM). • Reader: Envision from PerkinElmer, HTRF reading mode with 412 mirror • Assay Plate: Matrix all-black polypropylene plates (Cat. #4344) • Others: Weidman 384 polypropylene plates (REMP) for compound plate. Assay Procedure: • (1) Prepare Kinase Assay Buffer (KAB): 50 mM HEPES (HyClone) pH7, 10 mM MgCl2, 1 mM DTT, 0.1 mM […], and 0.3 mg/ml BSA. • (2) Prepare 6H-MEK (150 nM) in KAB. Add 12 μL/well to the assay plate. • (3) Prepare ATP (66 μM) in KAB. • (4) Dilute compounds to 2.4 mM and any positive controls to 480 μM in DMSO. Perform 10-point 3× dilution in DMSO. Withdraw 2.5 μL/well of DMSO solution and add to 27.5 μL/well ATP solution in (3). • (5) Mix, then add 6 μL/well of solution in (4) to the assay plate for a DMSO concentration of 2.1% during MEK phosphorylation. • (6) Prepare b-Raf WT (100 μM) in KAB. • (7) Add 6 μL/well of KAB in columns 1-2 and 6 μL/well of b-Raf WT in columns 3-24. • (8) Incubate at 37° C. for 30 min. • (9) Prepare rabbit (α-P-(Ser 217/221 )-MEK-1/2 Ab (1:200 from stock) in AB1: 50 mM HEPES pH7, 0.2 mg/ml BSA, and 43 mM EDTA. • (10) To stop reaction, add 6 μL/well of solution from (9) to the assay plate and incubate at 37° C. for 30 min. • (11) Prepare Eu-(α-rabbit IgG (9 nM) and (α-6H-SureLight-APC (180 nM) in AB2: 50 mM HEPES pH7 and 0.2 mg/mL BSA. • (12) Add 6 μL/well of solution from (11) to the assay plate. • (13) For determining the spectrum cross talk factor, prepare 2 samples following steps (1) to (10). For the blank sample, add 6 μL/well of AB2. For the cross talk factor sample, add 6 μL/well of Eu-anti rabbit IgG (9 nM). • (14) Incubate at room temperature for 1.5 hours. • (15) Read HTRF signals at 615 nm and 665 nm on the Envision. Normalize HTRF signals after spectrum cross-talk correction. b-Raf V600E Mutant HTRF Assay With 6H-MEK as Substrate (Dose Response) Assay Principle: […]
For `Cc1nnc(-c2ccc(C)c(OCc3nn(C)c4ncnc(N)c34)c2)o1` [Example 21, 1-Methyl-3-[2-methyl-5-(5-methyl-[1,3,4]oxadiazol-2-yl)-phenoxymethyl]-1H-pyrazolo[3,4-d]pyrimidin-4-ylamine], the pIC50 was less than 5.00.

`Cc1ccc(OCc2ccccc2)cc1OCc1nn(C)c2ncnc(N)c12` [Example 15, 3-(5-Benzyloxy-2-methyl-phenoxymethyl)-1-methyl-1H-pyrazolo[3,4-d]pyrimidin-4-ylamine]: the pIC50 was greater than 5.00.

As to `Cc1noc(-c2ccc(C)c(OCc3nn(C)c4ncnc(N)c34)c2)n1` [Example 13, 4-Amino-1-1-methyl-3-[2-methyl-5-(3-methyl-[1,2,4]oxadiazol-5-yl)-phenoxymethyl]-1H-pyrazolo[3,4-d]pyrimidine], the pIC50 is less than 5.00.

For `Cc1ccc(C(=O)Nc2ccc(Cl)cc2)cc1OCc1nn(C)c2ncnc(N)c12` [Example 17, 3-(4-Amino-1-methyl-1H-pyrazolo[3,4-d]pyrimidin-3-ylmethoxy)-N-(4-chloro-phenyl)-4-methyl-benzamide], the pIC50 is greater than 5.00.

As for `Cc1ccc(OCc2ccc(Cl)cc2)cc1OCc1nn(C)c2ncnc(N)c12` [Example 19, 3-[5-(4-Chloro-benzyloxy)-2-methyl-phenoxymethyl]-1-methyl-1H-pyrazolo[3,4-d]pyrimidin-4-ylamine], the pIC50 is greater than 5.00.

As for `Cc1ccc(NC(=O)c2cccc(Cl)c2)cc1OCc1nn(C)c2ncnc(N)c12` [Example 11, N-[3-(4-Amino-1-methyl-1H-pyrazolo[3,4-d]pyrimidin-3-ylmethoxy)-4-methyl-phenyl]-3-chloro-benzamide], the pIC50 was greater than 5.00.

For the compound `Cn1nc(COc2cccc(OCc3ccccc3)c2)c2c(N)ncnc21` [Example 7, 3-(3-Benzyloxy-phenoxymethyl)-1-methyl-1H-pyrazolo[3,4-d]pyrimidin-4-ylamine], the pIC50 was less than 5.00.

For `Cc1ccc(NC(=O)c2ccc(NCCO)c(Cl)c2)cc1OCc1nn(C)c2ncnc(N)c12` [Example 9, N-[3-(4-Amino-1-methyl-1H-pyrazolo[3,4-d]pyrimidin-3-ylmethoxy)-4-methyl-phenyl]-3-chloro-4-(2-hydroxy-ethylamino)-benzamide], the negative-log IC50 (pIC50) is greater than 5.00.
